The test system of one assay is CpomOR6a. Briefly: Single sensillum recordings, CpomOR6a expressed in Drosophila at1 OSNs. The class given is cell-based, Cydia pomonella. The following applies: for Spike/s: 10 μg per stimulus. An excerpt: To perform heterologous expression in D. melanogaster OSNs, CpomORs were amplified using primers in Table 2 and purified PCR products were cloned into the PCR8/GW/TOPO plasmid (Invitrogen) following the recommended protocol. Cassettes with inserts were then transferred from their PCR8/GW/TOPO plasmids to the destination vector (pUASg-HA.attB, constructed by E. Furger and J. Bischof, kindly provided by the Basler group, Zürich), using the Gateway LR Clonase II kit (Invitrogen). The integrity and orientation of inserts was confirmed by sequencing (Sanger sequencer, 3730xl). Transformant UAS-CpomOR3 and UAS-CpomOR1 lines were generated by Best Gene (Chino Hills, CA, USA), using the PhiC31 integrase system, while the transformant UAS-CpomOR6a line was generated in our labs. Briefly, recombinant pUASg-HA.attB-CpomOR plasmids were injected into embryos of a D. melanogaster line containing an attP insertion site within the third chromosome (genotype y1 M{vas-int.Dm}ZH-2A w*; M{3xP3-RFP.attP}ZH-86Fb), leading to non-random integration. To drive expression of CpomORs in at1 OSNs in place of the endogenous receptor Or67d, transformant UAS-CpomOR lines were crossed to the knock-in Or67d^GAL4 line (kindly provided by Barry Dickson) to generate double homozygous lines w^+;UAS-CpomOR; Or67d^GAL4. Additionally, to drive expression of CpomOR3 in ab3A OSNs, the UAS-CpomOR3 line was crossed to the Δhalo;Or22a-Gal4 mutant line[20][57]. To verify insertion of UAS-CpomORs constructs into the genome, gDNA was extracted and used as template in PCR with primers for the full ORF of CpomORs (Table 2).
CpomOR1 and CpomOR6a expressed in at1 OSNs, and CpomOR3 expressed in ab3A OSNs, were tested through single sensillum recordings (SSR). Three to 8-day-old flies were immobilized in 100 μL pipette tips with only the top half of the head protruding. The left antenna of each insect was gently pushed with a glass capillary against a double-sided adhesive tape placed on a piece of glass. This piece of glass and the pipette tip were fixed with dental wax on a microscope slide. Electrolytically sharpened tungsten electrodes (Harvard Apparatus Ltd, Edenbridge, United Kingdom) were used to penetrate the insect´s body. The reference electrode was manually inserted in the right eye of the fly, while the recording electrode was manoeuvred with a DC-3K micromanipulator equipped with a PM-10 piezo translator (Märzhäuser Wetzler GmbH, Wetzler, Germany) and inserted at the base of the determined sensilla. Signals coming from the olfactory sensory neurons were amplified 10 times with a probe (INR-02, Syntech, Hilversum, the Netherlands), digitally converted through an IDAC-4-USB (Syntech) interface, and visualized and analysed with the software Autospike v. 3.4 (Syntech). A constant flow of 0.65 m/s of humidified air (charcoal-filtered) was delivered through a glass tube to the antenna. The panel of odorants was given to the insect by inserting pipettes containing a piece of filter paper with the correspondent stimulus in a lateral hole of the glass tube and puffing a flow of 2.5 mL of air during 0.5 s through the pipette. For CpomOR1 and CpomOR6a the panel of odorants was prepared by applying 10 μL of a solution of 1.0 μg/μL of the compounds in Supplementary Dataset S2 and Supplementary Dataset S3, for a total amount of 10 μg per stimulus. In the case of CpomOR3, a similar dilution process was used for the dose response experiments of ethyl-(E,Z)-2,4-decadienoate and methyl-(E,Z)-2,4-decadienoate, as well for dose response of experiments of codlemone acetate in CpomOR6a. Compounds were diluted from concentrations ranging from 0.01 ng/μL to 10 μg/μL in decadic steps, allowing reaching concentrations from 100 pg to 100 μg per stimulus when 10 μL of the dilution was applied in the piece of filter paper. […]

The next assay has as its system CpomOR1. As to the kind of experiment: Single sensillum recordings, CpomOR1 expressed in Drosophila at1 OSNs. The class given is cell-based, Cydia pomonella.
Setting [1] is: replicate 1, 10 μg per stimulus.
Where [2] appears, read: replicate 2, 10 μg per stimulus.
The mark [3] stands for this setting: replicate 3, 10 μg per stimulus.
[4] abbreviates: replicate 4, 10 μg per stimulus.
[5] abbreviates: replicate 5, 10 μg per stimulus.

As to `C/C=C/C=C/CCCCCCCOC(C)=O` [codlemone acetate, (E,E)-8,10-dodecadien-1-yl acetate], the “response compared with the solvent” value with CpomOR6a (10 μg doses, Mann-Whitney U Test, p < 0.05) is given as “strongest response significantly different from the solvent”. In the assay with CpomOR6a (dose response, dose per stimulus), the threshold for detection amounted to 1.0 microgram. The Spike/s in the assay with CpomOR6a (replicate 1) came to 46 Spike/s; in the assay on CpomOR6a (replicate 2), 50 Spike/s; in the assay with CpomOR6a (replicate 3), 44 Spike/s; in the assay with CpomOR6a (replicate 4) it was 54 Spike/s; in the assay with CpomOR6a (replicate 5), 80 Spike/s; with CpomOR6a (replicate 6), 46 Spike/s. Moreover, the figures for the Spike/s in the assay with CpomOR6a (replicate 7), in the assay with CpomOR6a (replicate 8) and in the assay on CpomOR6a (replicate 9) were 82 Spike/s, 62 Spike/s and 58 Spike/s, respectively. Besides, the Spikes/s in the assay on CpomOR1 (setting [1]) was 2 Spikes/s; with CpomOR1 (setting [2]), 4 Spikes/s; in the assay on CpomOR1 (setting [3]) it was 4 Spikes/s; in the assay on CpomOR1 (setting [4]), 2 Spikes/s; in the assay on CpomOR1 (setting [5]), 4 Spikes/s.
On to `C/C=C/C=C/CCCCCCCO` [codlemone, (E,E)-8,10-dodecadien-1-ol], for which the Spike/s in the assay on CpomOR6a (replicate 1) was 0 Spike/s; in the assay on CpomOR6a (replicate 2), 0 Spike/s; in the assay on CpomOR6a (replicate 3), -4 Spike/s; with CpomOR6a (replicate 4) it was 6 Spike/s; in the assay with CpomOR6a (replicate 5), 0 Spike/s; in the assay on CpomOR6a (replicate 6), 2 Spike/s. Moreover, the Spike/s in the assay on CpomOR6a (replicate 7) turned out to be 14 Spike/s; with CpomOR6a (replicate 8), 0 Spike/s; in the assay on CpomOR6a (replicate 9), 2 Spike/s. For the same molecule, the Spikes/s in the assay with CpomOR1 (replicate 1, 100 ng) is recorded as -4 Spikes/s; in the assay with CpomOR1 (setting [1]), 6 Spikes/s; with CpomOR1 (replicate 2, 100 ng), 2 Spikes/s; with CpomOR1 (setting [2]), 2 Spikes/s; in the assay on CpomOR1 (replicate 3, 100 ng), 2 Spikes/s; with CpomOR1 (setting [3]), 0 Spikes/s. The Spikes/s with CpomOR1 (replicate 4, 100 ng) is reported as -8 Spikes/s; with CpomOR1 (setting [4]) it was -12 Spikes/s; in the assay on CpomOR1 (replicate 5, 100 ng), -4 Spikes/s; with CpomOR1 (setting [5]) it was 0 Spikes/s.

These data come from article PMC5259778, “Candidate pheromone receptors of codling moth Cydia pomonella respond to pheromones and kairomones” (Scientific Reports, 2017).
